18 compounds from patent US9776995B2, “Bicyclic sulfonamide compounds as sodium channel inhibitors” (AMGEN INC., priority 2013, dated 2017) can be followed below.

Data set [1] concerns the target Nav 1.7 (Homo sapiens (Human), UniProt Q15858). The data set can be described thus: in-vitro Nav 1.7 PX data. As to conditions: in-vitro PX. Type of data set: cell-based.
In data set [2] the target is Nav 1.5 (Homo sapiens (Human), UniProt Q14524). The data set can be described thus: in-vitro Nav 1.5 PX data. As to conditions: read-out: Nav 1.5 PX IC50; in-vitro PX.

Bounds are passed on as bounds.

Chain of Nav 1.5 (Q14524 whole entry): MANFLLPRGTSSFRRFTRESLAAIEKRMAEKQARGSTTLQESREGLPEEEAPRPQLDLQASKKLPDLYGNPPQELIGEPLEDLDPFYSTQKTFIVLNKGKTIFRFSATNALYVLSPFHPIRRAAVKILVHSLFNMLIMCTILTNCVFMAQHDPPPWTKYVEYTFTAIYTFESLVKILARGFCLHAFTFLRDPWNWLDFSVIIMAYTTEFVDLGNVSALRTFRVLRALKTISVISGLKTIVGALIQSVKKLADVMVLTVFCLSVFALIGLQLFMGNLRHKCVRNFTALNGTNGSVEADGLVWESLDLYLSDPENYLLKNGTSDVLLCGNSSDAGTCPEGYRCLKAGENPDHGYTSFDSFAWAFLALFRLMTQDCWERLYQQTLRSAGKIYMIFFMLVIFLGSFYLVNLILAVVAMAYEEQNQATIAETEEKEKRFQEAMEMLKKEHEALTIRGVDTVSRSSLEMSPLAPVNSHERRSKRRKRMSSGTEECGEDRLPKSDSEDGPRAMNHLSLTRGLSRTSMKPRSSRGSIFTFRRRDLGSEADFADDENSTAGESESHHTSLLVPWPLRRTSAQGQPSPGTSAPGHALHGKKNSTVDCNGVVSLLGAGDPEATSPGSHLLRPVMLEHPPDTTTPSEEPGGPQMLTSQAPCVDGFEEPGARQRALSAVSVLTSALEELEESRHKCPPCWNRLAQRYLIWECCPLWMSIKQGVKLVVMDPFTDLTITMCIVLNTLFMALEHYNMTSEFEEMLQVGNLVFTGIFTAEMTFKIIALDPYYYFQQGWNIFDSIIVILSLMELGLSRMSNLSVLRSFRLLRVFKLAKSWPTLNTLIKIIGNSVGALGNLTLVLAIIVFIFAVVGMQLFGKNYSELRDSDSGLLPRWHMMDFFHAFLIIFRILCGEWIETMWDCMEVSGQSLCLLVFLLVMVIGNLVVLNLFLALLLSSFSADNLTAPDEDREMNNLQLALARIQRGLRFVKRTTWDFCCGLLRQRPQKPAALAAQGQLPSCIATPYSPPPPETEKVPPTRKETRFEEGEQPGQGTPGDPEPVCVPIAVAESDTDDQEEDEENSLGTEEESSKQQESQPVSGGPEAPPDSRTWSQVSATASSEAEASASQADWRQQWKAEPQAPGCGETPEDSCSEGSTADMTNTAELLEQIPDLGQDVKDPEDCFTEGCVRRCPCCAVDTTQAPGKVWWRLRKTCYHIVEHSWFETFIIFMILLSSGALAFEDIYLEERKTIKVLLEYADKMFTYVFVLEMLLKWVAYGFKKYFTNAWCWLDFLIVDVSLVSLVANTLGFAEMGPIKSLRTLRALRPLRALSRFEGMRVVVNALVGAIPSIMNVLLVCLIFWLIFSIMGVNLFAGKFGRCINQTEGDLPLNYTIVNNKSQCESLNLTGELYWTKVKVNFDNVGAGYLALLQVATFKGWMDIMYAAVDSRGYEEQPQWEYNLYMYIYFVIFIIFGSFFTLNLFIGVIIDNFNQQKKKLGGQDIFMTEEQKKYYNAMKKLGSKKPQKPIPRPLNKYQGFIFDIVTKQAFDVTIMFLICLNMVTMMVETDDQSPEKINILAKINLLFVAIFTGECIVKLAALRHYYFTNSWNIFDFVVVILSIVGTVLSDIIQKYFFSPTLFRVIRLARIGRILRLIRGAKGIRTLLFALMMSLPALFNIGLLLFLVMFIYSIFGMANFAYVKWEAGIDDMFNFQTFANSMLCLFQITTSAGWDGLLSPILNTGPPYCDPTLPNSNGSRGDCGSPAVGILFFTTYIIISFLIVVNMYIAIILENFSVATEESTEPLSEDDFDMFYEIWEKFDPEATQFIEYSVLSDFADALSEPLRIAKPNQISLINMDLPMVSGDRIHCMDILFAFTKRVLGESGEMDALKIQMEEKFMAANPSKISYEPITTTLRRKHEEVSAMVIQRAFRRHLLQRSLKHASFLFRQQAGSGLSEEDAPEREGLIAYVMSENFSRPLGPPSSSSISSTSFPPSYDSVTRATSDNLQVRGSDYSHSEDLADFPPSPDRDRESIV
Chain of Nav 1.7 (Q15858 whole entry): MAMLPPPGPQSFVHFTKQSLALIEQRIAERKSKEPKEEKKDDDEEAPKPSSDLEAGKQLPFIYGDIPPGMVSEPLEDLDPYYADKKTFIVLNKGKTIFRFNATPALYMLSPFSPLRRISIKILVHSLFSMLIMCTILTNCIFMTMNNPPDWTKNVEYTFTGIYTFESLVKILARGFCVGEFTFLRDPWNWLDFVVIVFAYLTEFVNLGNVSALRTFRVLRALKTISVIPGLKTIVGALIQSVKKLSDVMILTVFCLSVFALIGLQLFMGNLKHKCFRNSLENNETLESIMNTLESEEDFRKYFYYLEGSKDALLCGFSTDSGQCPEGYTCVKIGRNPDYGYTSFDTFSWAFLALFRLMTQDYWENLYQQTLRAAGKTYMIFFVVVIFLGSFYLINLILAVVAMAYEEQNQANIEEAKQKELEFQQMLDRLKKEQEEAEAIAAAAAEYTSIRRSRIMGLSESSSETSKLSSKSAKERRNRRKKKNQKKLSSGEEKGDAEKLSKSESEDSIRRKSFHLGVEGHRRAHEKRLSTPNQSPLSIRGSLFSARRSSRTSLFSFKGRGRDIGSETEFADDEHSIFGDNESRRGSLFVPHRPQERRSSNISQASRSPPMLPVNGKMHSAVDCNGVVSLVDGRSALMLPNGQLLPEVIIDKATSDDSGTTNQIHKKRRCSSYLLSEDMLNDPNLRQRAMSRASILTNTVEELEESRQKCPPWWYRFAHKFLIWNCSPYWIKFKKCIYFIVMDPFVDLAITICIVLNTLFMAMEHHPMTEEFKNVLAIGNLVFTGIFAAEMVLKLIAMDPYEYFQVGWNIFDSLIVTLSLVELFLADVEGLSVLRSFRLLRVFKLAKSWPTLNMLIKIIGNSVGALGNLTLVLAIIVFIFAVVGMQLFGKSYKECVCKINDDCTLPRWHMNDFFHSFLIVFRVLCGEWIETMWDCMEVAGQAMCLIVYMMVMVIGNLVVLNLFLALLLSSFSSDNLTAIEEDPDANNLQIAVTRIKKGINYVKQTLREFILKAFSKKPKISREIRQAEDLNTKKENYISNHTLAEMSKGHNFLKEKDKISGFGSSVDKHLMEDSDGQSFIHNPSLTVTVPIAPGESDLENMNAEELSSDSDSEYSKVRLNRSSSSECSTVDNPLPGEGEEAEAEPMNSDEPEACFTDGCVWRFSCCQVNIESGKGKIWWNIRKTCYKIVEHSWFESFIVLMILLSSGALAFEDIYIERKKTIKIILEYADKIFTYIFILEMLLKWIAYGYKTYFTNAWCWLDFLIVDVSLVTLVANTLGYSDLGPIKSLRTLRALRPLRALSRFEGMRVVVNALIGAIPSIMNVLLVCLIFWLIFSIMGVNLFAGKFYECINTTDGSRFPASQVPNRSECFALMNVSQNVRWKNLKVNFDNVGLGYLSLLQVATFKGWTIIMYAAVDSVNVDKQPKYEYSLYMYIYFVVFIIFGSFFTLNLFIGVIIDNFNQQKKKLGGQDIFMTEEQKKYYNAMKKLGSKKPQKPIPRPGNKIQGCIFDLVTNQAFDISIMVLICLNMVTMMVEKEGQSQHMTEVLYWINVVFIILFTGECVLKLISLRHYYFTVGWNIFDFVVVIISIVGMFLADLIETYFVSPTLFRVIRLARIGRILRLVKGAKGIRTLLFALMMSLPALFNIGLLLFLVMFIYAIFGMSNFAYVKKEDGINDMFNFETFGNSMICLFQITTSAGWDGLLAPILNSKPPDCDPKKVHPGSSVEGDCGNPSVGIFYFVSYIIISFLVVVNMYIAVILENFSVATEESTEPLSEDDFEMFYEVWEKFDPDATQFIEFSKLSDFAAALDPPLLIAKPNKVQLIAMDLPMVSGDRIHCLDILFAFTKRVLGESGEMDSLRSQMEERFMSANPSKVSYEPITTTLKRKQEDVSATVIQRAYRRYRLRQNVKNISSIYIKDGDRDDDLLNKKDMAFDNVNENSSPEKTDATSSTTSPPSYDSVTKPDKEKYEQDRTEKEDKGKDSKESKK

As usually defined, the IC50 is the point on the concentration scale where inhibition reaches its midpoint. `COc1cc(-c2cc(F)cc(F)c2)c(C#N)cc1-c1ncnc2cc(S(=O)(=O)Nc3nncs3)ccc12` [Example 216, 4-(2-cyano-3′,5′-difluoro-5-methoxy-4-biphenylyl)-N-1,3,4-thiadiazol-2-yl-7-quinazolinesulfonamide]: the IC50 in data set [1] is 45.6 nM; in data set [2], above 10 µM.

For the compound `COc1cc(-c2cccc(C)c2)c(C#N)cc1-c1nccc2cc(S(=O)(=O)Nc3nncs3)ccc12` [Example 217, 1-(2-cyano-5-methoxy-3′-methyl-4-biphenylyl)-N-1,3,4-thiadiazol-2-yl-6-isoquinolinesulfonamide], the IC50 was 22.3 nM in data set [1] and above 10 µM in data set [2].

Turning to `COc1cc(-c2ccc(C)c(F)c2)c(C#N)cc1-c1nccc2cc(S(=O)(=O)Nc3nncs3)ccc12` [Example 218, 1-(2-cyano-3′-fluoro-5-methoxy-4′-methyl-4-biphenylyl)-N-1,3,4-thiadiazol-2-yl-6-isoquinolinesulfonamide], the IC50 in data set [1] is 22.9 nM; in data set [2], above 10 µM.

As to `COc1cc(-c2ccc(F)cc2)c(C#N)cc1-c1nccc2cc(S(=O)(=O)Nc3nncs3)ccc12` [Example 219, 1-(2-cyano-4′-fluoro-5-methoxy-4-biphenylyl)-N-1,3,4-thiadiazol-2-yl-6-isoquinolinesulfonamide], the results for the IC50 in data set [1] and in data set [2] were 33.8 nM and above 10 µM, respectively.

`COc1cc(-c2cc(C)cc(F)c2)c(C#N)cc1-c1nccc2cc(S(=O)(=O)Nc3nncs3)ccc12` [Example 222, 1-(2-cyano-3′-fluoro-5-methoxy-5′-methyl-4-biphenylyl)-N-1,3,4-thiadiazol-2-yl-6-isoquinolinesulfonamide]: the values for the IC50 in data set [1] and in data set [2] were 21.8 nM and above 10 µM, respectively.

With `COc1cc(-c2cccc(C(F)(F)F)c2)c(C#N)cc1-c1ncnc2cc(S(=O)(=O)Nc3nncs3)ccc12` [Example 226, 4-(2-cyano-5-methoxy-3′-(trifluoromethyl)-4-biphenylyl)-N-1,3,4-thiadiazol-2-yl-7-quinazolinesulfonamide], the IC50 in data set [1] is 11.6 nM; in data set [2], above 10 µM.

`COc1cc(-c2ccc(C)c(Cl)c2)c(C#N)cc1-c1nccc2cc(S(=O)(=O)Nc3nncs3)ccc12` [Example 229, 1-(3′-chloro-2-cyano-5-methoxy-4′-methyl-4-biphenylyl)-N-1,3,4-thiadiazol-2-yl-6-isoquinolinesulfonamide]: the figures for the IC50 in data set [1] and in data set [2] were 20.5 nM and above 10 µM, respectively.

On to `COc1cc(-c2ccc(F)c(C)c2)c(C#N)cc1-c1nccc2cc(S(=O)(=O)Nc3nncs3)ccc12` [Example 230, 1-(2-cyano-4′-fluoro-5-methoxy-3′-methyl-4-biphenylyl)-N-1,3,4-thiadiazol-2-yl-6-isoquinolinesulfonamide], for which the IC50 in data set [1] was 12.7 nM; in data set [2] it was above 10 µM.

`N#CCOc1cc(-c2cccc(F)c2)ccc1-c1nccc2cc(S(=O)(=O)Nc3ccon3)ccc12` [Example 231, 1-(3-(cyanomethoxy)-3′-fluoro-4-biphenylyl)-N-3-isoxazolyl-6-isoquinolinesulfonamide]: the IC50 is 140 nM in data set [1] and above 30 µM in data set [2].

Regarding `COc1cc(-c2cc(F)cc(F)c2)c(Cl)cc1-c1nn(C)c(=O)c2cc(S(=O)(=O)Nc3ccon3)ccc12` [Example 233, 1-(2-chloro-3′,5′-difluoro-5-methoxy-4-biphenylyl)-N-3-isoxazolyl-3-methyl-4-oxo-3,4-dihydro-6-phthalazinesulfonamide], the values for the IC50 in data set [1] and in data set [2] were 138 nM and above 30 µM, respectively.

As for `COc1cc(-c2cc(F)cc(F)c2)c(Cl)cc1-c1nn(C)c(=O)c2cc(S(=O)(=O)Nc3nncs3)ccc12` [Example 235, 1-(2-chloro-3′,5′-difluoro-5-methoxy-4-biphenylyl)-3-methyl-4-oxo-N-1,3,4-thiadiazol-2-yl-3,4-dihydro-6-phthalazinesulfonamide], the IC50 in data set [1] is 47.1 nM; in data set [2], above 10 µM.

For the compound `COc1nc(N2CC(F)(F)C2)c(Cl)cc1-c1nccc2cc(S(=O)(=O)Nc3nncs3)ccc12` [Example 236, 1-(5-chloro-6-(3,3-difluoro-1-azetidinyl)-2-methoxy-3-pyridinyl)-N-1,3,4-thiadiazol-2-yl-6-isoquinolinesulfonamide], the values for the IC50 in data set [1] and in data set [2] were 382 nM and above 30 µM, respectively.

With `COc1nc(N2CCC(F)(F)C2)c(Cl)cc1-c1nccc2cc(S(=O)(=O)Nc3nncs3)ccc12` [Example 237, 1-(5-chloro-6-(3,3-difluoro-1-pyrrolidinyl)-2-methoxy-3-pyridinyl)-N-1,3,4-thiadiazol-2-yl-6-isoquinolinesulfonamide], the IC50 is 336 nM in data set [1] and above 30 µM in data set [2].

With `N#CCOc1cc(-c2cccc(F)c2)ccc1-c1nccc2cc(S(=O)(=O)Nc3nncs3)ccc12` [Example 238, 1-(3-(cyanomethoxy)-3′-fluoro-4-biphenylyl)-N-1,3,4-thiadiazol-2-yl-6-isoquinolinesulfonamide], the IC50 is 144 nM in data set [1] and above 10 µM in data set [2].

On to `COc1cc(-c2cccc(F)c2)c(Cl)cc1-c1ccnc2cc(S(=O)(=O)Nc3ccon3)ccc12` [Example 239, 4-(2-chloro-3′-fluoro-5-methoxy-4-biphenylyl)-N-3-isoxazolyl-7-quinolinesulfonamide], for which the IC50 in data set [1] is 115 nM; in data set [2], 11.2 µM.

On to `COc1cc(-c2cccc(F)c2)c(C#N)cc1-c1ncnc2cc(S(=O)(=O)Nc3nncs3)ccc12` [Example 241, 4-(2-cyano-3′-fluoro-5-methoxy-4-biphenylyl)-N-1,3,4-thiadiazol-2-yl-7-quinazolinesulfonamide], for which the IC50 in data set [1] was 69.1 nM; in data set [2], above 10 µM.

`COc1cc(-c2cccc(F)c2)c(Cl)cc1-c1ncnc2cc(S(=O)(=O)Nc3ncccn3)ccc12` [Example 243, 4-(2-chloro-3′-fluoro-5-methoxy-4-biphenylyl)-N-2-pyrimidinyl-7-quinazolinesulfonamide]: the IC50 in data set [1] is 80.3 nM; in data set [2], above 10 µM.

On to `COc1nc(N2CCC(F)(F)CC2)c(Cl)cc1-c1nccc2cc(S(=O)(=O)Nc3nncs3)ccc12` [Example 244, 1-(5-chloro-6-(4,4-difluoro-1-piperidinyl)-2-methoxy-3-pyridinyl)-N-1,3,4-thiadiazol-2-yl-6-isoquinolinesulfonamide], for which the concentration for half-maximal inhibition (IC50) in data set [1] is 424 nM; in data set [2] it was above 30 µM.
